Reference: patent US12365668B2, “Aminopyrazine diol compounds as PI3K-y inhibitors” (Incyte Corporation, priority 2018, dated 2025)

How the values were obtained:
[1] = molecular target: PI3Kγ (p110γ) Recombinant Human Protein (Homo sapiens (Human), UniProt P48736); assay: PI3K-γ Scintillation Proximity Assay; type: biochemical; conditions: 20 μM PIP2, 2 μM ATP, SPA
Excerpt: Example B. PI3K-γ Scintillation Proximity Assay Materials: [γ-^33P]ATP (10 mCi/mL) and Wheat Germ Agglutinin (WGA) YSi SPA Scintillation Beads was purchased from Perkin Elmer (Waltham, MA). Lipid kinase substrate, D-myo-Phosphatidylinositol 4,5-bisphosphate (PtdIns(4,5)P2)D (+)-sn-1,2-di-O-octanoylglyceryl, 3-O-phospho linked (PIP2), CAS 204858-53-7, was purchased from Echelon Biosciences (Salt Lake City, UT). PI3Kγ (p110γ) Recombinant Human Protein was purchased from Life technology (Grand Island, NY). ATP, MgCl2, DTT, EDTA, MOPS and CHAPS were purchased from Sigma Aldrich (St. Louis, MO). The kinase reaction was conducted in polystyrene 384-well Greiner Bio-one white plate from Thermo Fisher Scientific in a final volume of 25 μL. Inhibitors were first diluted serially in DMSO and added to the plate wells before the addition of other reaction components. The final concentration of DMSO in the assay was 2%. The PI3Kγ assay was carried out at room temperature in 20 mM MOPS, pH 6.7, 10 mM MgCl2, 5 mM DTT and CHAPS 0.03%. Reactions were initiated by the addition of ATP, the final reaction mixture consisted of 20 μM PIP2, 2 μM ATP, 0.5 μCi [γ-^33P] ATP, 13 nM PI3Kγ. Reactions were incubated for 120 min and terminated by the addition of 40 μL SPA beads suspended in quench buffer: 163 mM potassium phosphate pH 7.8, 20% glycerol, 25 mM EDTA. The final concentration of SPA beads is 1.0 mg/mL. After the plate sealing, plates were shaken overnight at room temperature and centrifuged at 1500 rpm for 10 min, the radioactivity of the product was determined by scintillation counting on Topcount (Perkin-Elmer). IC50 determination was performed by fitting the curve of percent of the solvent control activity versus the log of the inhibitor concentration using the GraphPad Prism 6.0 software.

[2] = molecular target: PI3Kδ (p110δ/p85α) Recombinant Human Protein (Homo sapiens (Human), UniProt O00329); assay: PI3Kδ Scintillation Proximity Assay; type: biochemical; conditions: 20 μM PIP2, 2 μM ATP, SPA
Excerpt: Example C. PI3Kδ Scintillation Proximity Assay Materials: [γ-^33P]ATP (10 mCi/mL) and Wheat Germ Agglutinin (WGA) YSi SPA Scintillation Beads was purchased from Perkin Elmer (Waltham, MA). Lipid kinase substrate, D-myo-Phosphatidylinositol 4,5-bisphosphate (PtdIns(4,5)P2)D (+)-sn-1,2-di-O-octanoylglyceryl, 3-O-phospho linked (PIP2), CAS 204858-53-7, was purchased from Echelon Biosciences (Salt Lake City, UT). PI3Kδ (p110δ/p85α) Recombinant Human Protein was purchased from Eurofins (St Charles, MO). ATP, MgCl2, DTT, EDTA, MOPS and CHAPS were purchased from Sigma Aldrich (St. Louis, MO). The kinase reaction was conducted in polystyrene 384-well Greiner Bio-one white plate from Thermo Fisher Scientific in a final volume of 25 μL. Inhibitors were first diluted serially in DMSO and added to the plate wells before the addition of other reaction components. The final concentration of DMSO in the assay was 2%. The PI3Kδ assay was carried out at room temperature in 20 mM MOPS, pH 6.7, 10 mM MgCl2, 5 mM DTT and CHAPS 0.03%. Reactions were initiated by the addition of ATP, the final reaction mixture consisted of 20 μM PIP2, 2 μM ATP, 0.5 μCi [γ-^33P] ATP, 3.4 nM PI3Kδ. Reactions were incubated for 120 min and terminated by the addition of 40 μL SPA beads suspended in quench buffer: 163 mM potassium phosphate pH 7.8, 20% glycerol, 25 mM EDTA. The final concentration of SPA beads is 1.0 mg/mL. After the plate sealing, plates were shaken overnight at room temperature and centrifuged at 1500 rpm for 10 min, the radioactivity of the product was determined by scintillation counting on Topcount (PerkinElmer). IC50 determination was performed by fitting the curve of percent of the solvent control activity versus the log of the inhibitor concentration using the GraphPad Prism 6.0 software.

[3] = test system: Phosphorylated Ribosomal Protein S6 (RPS6) in THP-1 cells; assay: THP-1 RPS6 ELISA Assay; type: cell-based, Human; conditions: Homo sapiens, serum starved, 2 hours compound, 10 nM MCP-1 for 15 minutes, Phospho-RPS6 ELISA, read-out: PI3Kγ_THP1_RPS6_ELISA IC50
Protocol: Example A. THP-1 RPS6 ELISA Assay
To measure the Phosphorylated Ribosomal Protein S6 (RPS6) in cell lysates, THP-1 cells (Human Acute Monocytic Leukemia) are purchased from ATCC (Manassas, VA) and maintained in RPMI with 10% FBS (Gibco/Life Technologies, Carlsbad, CA). For the assay, THP-1 cells are serum starved overnight in RPMI, then plated in RPMI (2×10^5 cells/well in 90 μL) into 96-well flat-bottom tissue culture treated plates (Corning, Corning, NY), in the presence or absence of a concentration range of test compounds. Covered plates are incubated for 2 hours at 37° C., 5% CO2 then treated with or without 10 nM MCP-1(MYBioSource, San Diego, CA) for 15 minutes at 37° C., 5% CO2. Plates are centrifuged at 1600 RPM and supernatants are removed. Cells are lysed in Lysis Buffer (Cell Signaling, Danvers, MA) with Protease Inhibitor (Calbiochem/EMD, Germany), PMSF (Sigma, St Louis MO), HALTS (Thermo Fisher, Rockford, IL) for 30 min on wet ice. Cell lysates are frozen at −80° C. before testing. The lysates are tested in the Human/Mouse/Rat Phospho-RPS6 ELISA (R&D Systems, Inc. Minn, MN). The plate is measured using a microplate reader (SpectraMax M5—Molecular Devices, LLC Sunnyvale, CA) set to 450 nm with a wavelength correction of 540. IC50 determination is performed by fitting the curve of inhibitor percent inhibition versus the log of the inhibitor concentration using the GraphPad Prism 5.0 software.

Chain of PI3Kδ (p110δ/p85α) Recombinant Human Protein (O00329 whole entry): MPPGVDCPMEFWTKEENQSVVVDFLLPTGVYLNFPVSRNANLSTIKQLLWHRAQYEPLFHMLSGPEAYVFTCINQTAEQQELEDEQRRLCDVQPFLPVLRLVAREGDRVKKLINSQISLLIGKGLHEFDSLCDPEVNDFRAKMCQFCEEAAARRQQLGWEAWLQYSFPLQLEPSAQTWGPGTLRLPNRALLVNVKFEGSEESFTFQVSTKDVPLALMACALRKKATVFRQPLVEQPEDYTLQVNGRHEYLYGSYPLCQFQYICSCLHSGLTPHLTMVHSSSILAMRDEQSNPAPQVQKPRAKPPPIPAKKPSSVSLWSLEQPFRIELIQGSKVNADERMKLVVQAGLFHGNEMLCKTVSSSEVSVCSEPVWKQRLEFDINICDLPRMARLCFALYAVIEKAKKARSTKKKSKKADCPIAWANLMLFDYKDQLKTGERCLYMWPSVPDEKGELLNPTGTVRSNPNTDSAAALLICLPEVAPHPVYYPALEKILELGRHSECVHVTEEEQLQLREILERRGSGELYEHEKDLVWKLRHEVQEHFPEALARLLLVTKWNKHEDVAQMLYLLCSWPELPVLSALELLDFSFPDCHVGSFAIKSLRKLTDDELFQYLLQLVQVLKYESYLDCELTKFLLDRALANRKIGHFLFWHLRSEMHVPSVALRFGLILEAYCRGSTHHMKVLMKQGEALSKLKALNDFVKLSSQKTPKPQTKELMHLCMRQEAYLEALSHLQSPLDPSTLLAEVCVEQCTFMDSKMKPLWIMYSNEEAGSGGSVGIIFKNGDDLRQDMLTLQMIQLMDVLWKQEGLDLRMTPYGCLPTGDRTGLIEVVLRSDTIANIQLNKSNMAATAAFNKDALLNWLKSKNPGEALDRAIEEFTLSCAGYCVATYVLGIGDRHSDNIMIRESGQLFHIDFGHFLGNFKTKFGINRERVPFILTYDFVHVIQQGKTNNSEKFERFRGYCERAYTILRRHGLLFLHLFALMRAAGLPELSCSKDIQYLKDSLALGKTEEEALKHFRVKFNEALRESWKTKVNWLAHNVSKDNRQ
Chain of PI3Kδ (p110δ/p85α) Recombinant Human Protein (P27986 whole entry partner): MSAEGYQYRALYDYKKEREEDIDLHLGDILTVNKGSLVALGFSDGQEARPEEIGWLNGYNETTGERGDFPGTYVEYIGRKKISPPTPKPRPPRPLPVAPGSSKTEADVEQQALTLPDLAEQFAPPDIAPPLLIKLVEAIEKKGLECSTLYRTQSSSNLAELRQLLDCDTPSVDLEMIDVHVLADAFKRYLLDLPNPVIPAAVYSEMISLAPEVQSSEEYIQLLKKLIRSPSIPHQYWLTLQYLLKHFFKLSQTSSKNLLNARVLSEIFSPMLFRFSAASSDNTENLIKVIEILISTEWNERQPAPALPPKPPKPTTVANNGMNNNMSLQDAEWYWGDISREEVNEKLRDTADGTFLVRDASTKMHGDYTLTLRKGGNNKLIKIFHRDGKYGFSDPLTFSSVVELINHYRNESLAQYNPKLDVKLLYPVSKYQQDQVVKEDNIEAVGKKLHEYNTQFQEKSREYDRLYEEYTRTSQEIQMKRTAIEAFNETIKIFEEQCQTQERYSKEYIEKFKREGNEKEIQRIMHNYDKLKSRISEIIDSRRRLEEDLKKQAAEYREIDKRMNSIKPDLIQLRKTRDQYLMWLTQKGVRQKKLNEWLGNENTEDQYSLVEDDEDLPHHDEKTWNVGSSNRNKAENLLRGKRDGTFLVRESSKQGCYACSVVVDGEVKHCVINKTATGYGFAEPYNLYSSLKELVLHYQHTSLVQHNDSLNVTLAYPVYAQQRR
Chain of PI3Kγ (p110γ) Recombinant Human Protein (P48736 whole entry): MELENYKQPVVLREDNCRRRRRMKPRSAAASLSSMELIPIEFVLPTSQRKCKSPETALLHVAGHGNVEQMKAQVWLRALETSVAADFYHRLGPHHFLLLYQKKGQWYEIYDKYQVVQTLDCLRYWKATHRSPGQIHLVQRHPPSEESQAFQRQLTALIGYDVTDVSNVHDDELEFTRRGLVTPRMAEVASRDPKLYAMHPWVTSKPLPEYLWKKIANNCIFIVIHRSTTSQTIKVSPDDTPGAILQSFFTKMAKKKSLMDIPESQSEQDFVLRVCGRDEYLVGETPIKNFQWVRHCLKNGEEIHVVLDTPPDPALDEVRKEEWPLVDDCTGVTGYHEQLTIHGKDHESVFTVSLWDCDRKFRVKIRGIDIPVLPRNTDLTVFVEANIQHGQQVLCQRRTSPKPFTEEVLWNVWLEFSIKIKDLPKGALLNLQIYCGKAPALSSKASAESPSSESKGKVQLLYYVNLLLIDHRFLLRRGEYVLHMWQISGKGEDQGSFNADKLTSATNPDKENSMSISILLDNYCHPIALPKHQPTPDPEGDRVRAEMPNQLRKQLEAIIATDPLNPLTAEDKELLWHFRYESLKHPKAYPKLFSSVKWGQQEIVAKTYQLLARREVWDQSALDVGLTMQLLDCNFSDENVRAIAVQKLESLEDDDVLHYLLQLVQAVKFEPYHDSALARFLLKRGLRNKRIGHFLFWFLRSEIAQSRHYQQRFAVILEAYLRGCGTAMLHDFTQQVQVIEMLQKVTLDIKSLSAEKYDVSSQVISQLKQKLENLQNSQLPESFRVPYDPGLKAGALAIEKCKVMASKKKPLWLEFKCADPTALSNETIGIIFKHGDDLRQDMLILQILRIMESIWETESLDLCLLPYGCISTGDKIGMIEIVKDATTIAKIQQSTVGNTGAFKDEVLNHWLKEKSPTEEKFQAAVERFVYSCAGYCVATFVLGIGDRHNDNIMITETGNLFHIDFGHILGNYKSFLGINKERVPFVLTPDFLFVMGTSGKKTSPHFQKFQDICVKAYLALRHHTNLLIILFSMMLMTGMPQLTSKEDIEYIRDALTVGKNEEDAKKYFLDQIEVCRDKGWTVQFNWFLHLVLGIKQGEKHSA

IC50 [1] [µM]	IC50 [2] [µM]	IC50 [3] [µM]	Compound
–	0.1 to 0.5	0.1 to 0.5	Cc1ccc(C(O)(CO)C(F)(F)F)cc1-c1cnc(N)c(C2CN(S(=O)(=O)c3ccn(C)n3)C2)n1 (stereo not shown) [Example 23, 2-(3-(5-Amino-6-(1-((1-methyl-1H-pyrazol-3-yl)sulfonyl)azetidin-3-yl)pyrazin-2-yl)-4-methylphenyl)-3,3,3-trifluoropropane-1,2-diol]
–	–	0.1 to 0.5	[2H]C([2H])([2H])c1ccc([C@](O)(CO)C(F)F)cc1-c1cnc(N)c(C(=O)N[C@@H]2CCCC[C@H]2O)n1 [Example 39, 3-Amino-6-(5-((S)-1,1-difluoro-2,3-dihydroxypropan-2-yl)-2-(methyl-d3)phenyl)-N-((1R,2R)-2-hydroxycyclohexyl)pyrazine-2-carboxamide]
–	–	0.1 to 0.5	[2H]C([2H])([2H])c1ccc([C@](O)(CO)C(F)(F)F)cc1-c1cnc(N)c(C(=O)N[C@H](C)CO)n1 [Example 36, 3-Amino-N-((R)-1-hydroxypropan-2-yl)-6-(2-(methyl-d3)-5-((S)-1,1,1-trifluoro-2,3-dihydroxypropan-2-yl)phenyl)pyrazine-2-carboxamide]
–	0.1 to 0.5	0.1 to 0.5	Cc1ccc([C@](O)(CO)C(F)F)cc1-c1cnc(N)c(C(=O)N[C@@H](C)CO)n1 (single isomer, unassigned) [Example 43]
–	0.1 to 0.5	–	Cc1ccc(C(O)(C(C)(C)O)C(F)(F)F)cc1-c1cnc(N)c(C(=O)NC2CCOCC2)n1 (stereo not shown) [Example 22, 3-Amino-6-(2-methyl-5-(1,1,1-trifluoro-2,3-dihydroxy-3-methylbutan-2-yl)phenyl)-N-(tetrahydro-2H-pyran-4-yl)pyrazine-2-carboxamide]
–	–	0.1 to 0.5	[2H]C([2H])([2H])c1ccc([C@](O)(CO)C(F)F)cc1-c1cnc(N)c(C(=O)N[C@H]2CCCC[C@@H]2O)n1 [Example 38, 3-Amino-6-(5-((S)-1,1-difluoro-2,3-dihydroxypropan-2-yl)-2-(methyl-d3)phenyl)-N-((1S,2S)-2-hydroxycyclohexyl)pyrazine-2-carboxamide]
–	–	0.1 to 0.5	Cc1ccc(C(O)(CO)C(F)(F)F)cc1-c1cnc(N)c(C2CC(C(=O)N3CC(O)C3)C2)n1 (single isomer, unassigned) [Example 24, (3-(3-Amino-6-(2-methyl-5-(1,1,1-trifluoro-2,3-dihydroxypropan-2-yl)phenyl)pyrazin-2-yl)cyclobutyl)(3-hydroxyazetidin-1-yl)methanone]

Second part, the compound before the results:

Compound	IC50 [1] [µM]	IC50 [2] [µM]	IC50 [3] [µM]
Cc1ccc(C(O)(CO)C(F)(F)F)cc1-c1cnc(N)c(-c2ccns2)n1 (stereo not shown) [Example 6, 2-(3-(5-Amino-6-(isothiazol-5-yl)pyrazin-2-yl)-4-methylphenyl)-3,3,3-trifluoropropane-1,2-diol]	≤ 0.1	≤ 0.1	–
Cc1ccc(C(O)(CO)C(F)(F)F)cc1-c1cnc(N)c(-c2cnsc2)n1 (stereo not shown) [Example 5, 2-(3-(5-Amino-6-(isothiazol-4-yl)pyrazin-2-yl)-4-methylphenyl)-3,3,3-trifluoropropane-1,2-diol]	≤ 0.1	≤ 0.1	–
Cc1cc(-c2nc(-c3cc(C(O)(CO)C(F)(F)F)ccc3C)cnc2N)on1 (stereo not shown) [Example 4, 2-(3-(5-Amino-6-(3-methylisoxazol-5-yl)pyrazin-2-yl)-4-methylphenyl)-3,3,3-trifluoropropane-1,2-diol]	≤ 0.1	≤ 0.1	–
[2H]C([2H])([2H])c1ccc(C(O)(C(O)C(F)(F)F)C(F)(F)F)cc1-c1cnc(N)c(-c2c[nH]nc2C)n1 (stereo not shown) [Example 20, 2-(3-(5-Amino-6-(3-methyl-1H-pyrazol-4-yl)pyrazin-2-yl)-4-(methyl-d3)phenyl)-1,1,1,4,4,4-hexafluorobutane-2,3-diol]	–	0.1 to 0.5	–
[2H]C([2H])([2H])c1ccc(C(O)(C(C)O)C(F)(F)F)cc1-c1cnc(N)c(C(=O)NC2CCOCC2)n1 (single isomer, unassigned) [Example 19, 3-Amino-6-(2-(methyl-d3)-5-(1,1,1-trifluoro-2,3-dihydroxybutan-2-yl)phenyl)-N-(tetrahydro-2H-pyran-4-yl)pyrazine-2-carboxamide]	–	–	0.1 to 0.5
Cc1cc(-c2nc(-c3cc(C(O)(CO)C(F)(F)F)ccc3C)cnc2N)sn1 (stereo not shown) [Example 7, 2-(3-(5-amino-6-(3-methylisothiazol-5-yl)pyrazin-2-yl)-4-methylphenyl)-3,3,3-trifluoropropane-1,2-diol]	≤ 0.1	≤ 0.1	–
Cc1ccc(C(O)(CO)C(F)(F)F)cc1-c1cnc(N)c(-n2ccnn2)n1 (stereo not shown) [Example 13, 2-(3-(5-Amino-6-(1H-1,2,3-triazol-1-yl)pyrazin-2-yl)-4-methylphenyl)-3,3,3-trifluoropropane-1,2-diol]	≤ 0.1	≤ 0.1	–
Cc1ccc(C(O)(CO)C(F)(F)F)cc1-c1cnc(N)c(-c2cn[nH]c2)n1 (stereo not shown) [Example 3, 2-(3-(5-Amino-6-(1H-pyrazol-4-yl)pyrazin-2-yl)-4-methylphenyl)-3,3,3-trifluoropropane-1,2-diol]	≤ 0.1	≤ 0.1	–
Cc1ccc([C@](O)(CO)C(F)F)cc1-c1cnc(N)c(C(=O)NC(C)C)n1 [Example 46, (S)-3-Amino-6-(5-(1,1-difluoro-2,3-dihydroxypropan-2-yl)-2-methylphenyl)-N-isopropylpyrazine-2-carboxamide]	≤ 0.1	≤ 0.1	–
Cc1ncc(-c2nc(-c3cc(C(O)(CO)C(F)(F)F)ccc3C)cnc2N)s1 (stereo not shown) [Example 10, 2-(3-(5-Amino-6-(2-methylthiazol-5-yl)pyrazin-2-yl)-4-methvlphenyl)-3,3,3-trifluoropropane-1,2-diol]	≤ 0.1	≤ 0.1	–
Cc1ccc(C(O)(CO)C(F)(F)F)cc1-c1cnc(N)c(-c2cnco2)n1 (stereo not shown) [Example 11, 2-(3-(5-Amino-6-(oxazol-5-yl)pyrazin-2-yl)-4-methylphenyl)-3,3,3-trifluoropropane-1,2-diol]	≤ 0.1	≤ 0.1	–
Cc1ccc(C(O)(CO)C(F)(F)F)cc1-c1cnc(N)c(-c2cnn(C)c2)n1 (stereo not shown) [Example 2, 2-(3-(5-Amino-6-(1-methyl-1H-pyrazol-4-yl)pyrazin-2-yl)-4-methylphenyl)-3,3,3-trifluoropropane-1,2-diol]	≤ 0.1	≤ 0.1	–
